Experimental data reported in patent publication US20230348988A1, “DNA Damage Repair Deficit in Cancer Cells” (THE REGENTS OF THE UNIVERSITY OF CALIFORNIA, priority 2020, published 2023).

Columns and labels:
Assay type in all cases: cell-based
SAS cells [1] = assay: Pulsed-field gel electrophoresis of residual DSB after irradiation
Experimental: Next it was sought to test whether TGFβ inhibition would increase alt-EJ in the context of NHEJ inhibition. Here pulsed-field gel electrophoresis was used to measure residual DSB levels in SAS cells at various timepoints after irradiation (20 Gy). NHEJ was blocked by treating cells with the DNA-protein kinase inhibitor KU57788 1 hour before irradiation and TGFβ signaling was blocked 24 hours beforehand with LY36494 pretreatment.

U251 human GBM cell line = assay: Quantitative expression assays of alt-EJ genes in U251 cells; conditions: time course, TGFβ signaling blockade with LY2157299
Excerpt: The above observations led to the hypothesis that TGFβ suppression of alt-EJ gene expression is a distinct mechanism that influences differential DNA repair pathway use. To test whether this biology is broadly employed beyond HNSC, glioblastoma (GBM) was considered because high TGFβ ligand and receptor expression correlate with poorer survival, and because TGFβ inhibition enhances radiosensitivity in GBM cell lines and primary tumor explants. First, the U251 human GBM cell line was investigated using the NANOSTRING™ panel. As observed in HNSC SAS cells, TGFβ inhibition increased expression of the key alt-EJ genes, LIG1, PARP1, and POLQ in GBM cells. […] U251 reporters (EJ2GFP) were established to evaluate alt-EJ repair.
(§1) Gene expression analyses methods: Total RNA was extracted. Sample RNA (250 ng) was used for the NANOSTRING™ DNA Damage Repair Gene Expression panel, consisting of 180 DDR genes and 12 housekeeping genes for normalization, according to manufacturer's instructions. Hybridization efficiency and background signals were evaluated based on internal positive and negative control probes analyzed using manufacturer's software. Ratio data from 2-3 biological repeats were used for further analysis and graphs.

SAS cells [2] = assay: NANOSTRING DDR gene panel expression in SAS cells; conditions: 24 h, TGFβ plus or minus inhibitor
Experimental: TGFβ regulates expression of DDR genes. To further investigate TGFβ impact on DDR, the expression of DNA repair-associated genes was evaluated using the NANOSTRING™ DDR gene panel. […] According to KEGG pathway analyses, expression of genes implicated in HR and NHEJ was increased by TGFβ and reduced by its inhibition. […] BRCA1 expression was increased by TGFβ and suppressed by LY2157299, as was ABL1 and POLD4. In contrast, TGFβ decreased and LY2157299 inhibition increased expression of LIG1, PARP1, and POLQ, which are key genes involved in alt-EJ.
as §1

O=c1cc(N2CCOCC2)oc2c(-c3cccc4c3sc3ccccc34)cccc12 [KU57788]
repair of radiation induced DSB (SAS cells [1]; KU57788 1 hour before irradiation (20 Gy)): significantly inhibited

c1ccc(-c2[nH]ncc2-c2ccnc3ccccc23)nc1 [LY36494]
rescue of KU57788-inhibited repair of radiation induced DSB (SAS cells [1]; LY36494 pretreatment 24 hours beforehand, with KU57788, 20 Gy): partially rescued

Cc1cccc(-c2nn3c(c2-c2ccnc4ccc(C(N)=O)cc24)CCC3)n1 [LY2157299]
expression of LIG1, PARP1, and POLQ (U251 human GBM cell line): increased | BRCA1 expression (as was ABL1 and POLD4) (SAS cells [2]): suppressed | TGFβ induction of CDKNJA (SAS cells [2]): blocked | expression of LIG1, PARP1, and POLQ (SAS cells [2]): increased
